Experimental data as given in patent US11077127B2, “Adjuvant containing baicalin, particularly from a Scutellaria baicalensis extract, and animal feed containing such an adjuvant” (DELTAVIT, priority 2014, dated 2021).

How the values were obtained:
[1] = system: piglets; experiment: Test 5: state of health and resistance to disease of piglets subject to a stress; assay type: in vivo, pig; conditions: 100 ppm in the feed
Excerpt: Test 5: Study of the Effect of the Administration of a Feed Comprising the Adjuvant with the Extract of Scutellaria baicalensis on a Solid Vehicle on the Improvement in the State of Health and Resistance to Disease of Piglets Subject to a Stress
The piglets were 42 days old at the beginning of the test. Three groups were formed: a control group, a group receiving the same feed supplemented with 100 ppm of an antibiotic (tylosine) and finally the last group receiving a feed supplemented with 100 ppm of an extract of Scutellaria baicalensis, that is 30 ppm of baicalin per kg of feed. The diseases were noted as were the curative treatments used in each groups.

[2] = system: Isabrown laying hens; experiment: Test 3: feed intake and egg laying of laying hens subject to thermal stress; assay type: in vivo, hen
Procedure: Test 3: Study of the Effect of the Administration of a Feed Comprising the Adjuvant with the Scutellaria baicalensis Extract on a Solid Vehicle on the Feed Intake of Laying Hens Subject to Thermal Stress 72 Isabrown laying hens thirty weeks old at the beginning of the test were divided into three groups of twelve cages each containing two hens. The test was carried out until the hens were 38 weeks old. Group 1 received the control feed. Group 2, also called the OTC group, received the control feed supplemented with an antibiotic, 400 ppm of oxytetracycline. Group 3, also called the SCU group, received the control feed supplemented with an extract from the root of Scutellaria baicalensis providing 6 mg of baicalin/kg of feed. After three weeks of distribution of the experimental feed, the hens were subject to a variation in temperature. The temperature of the environment increased from 22° C. (thermal comfort) to 35° C. for 5 days. Food intake, number of eggs laid and average weight of the eggs were recorded every week and every day during the week of the high temperature as well as during the following week. The test was divided into three phases: pre-heat increase phase, thermal stress phase and post-high temperature stress phase.

| Compound | % Pigs not treated [1] | % Pigs treated [1] | % treatments [1] | Mortality + elimination (%) [1] | Number of treatments: Cough [1] | Number of treatments: Lame [1] | Number of treatments: Lean [1] | Number of treatments: Nervous symptoms [1] | Number of treatments: Watery diarrhoea [1] | Pigs treated per cause: Cough [1] | Pigs treated per cause: Lame [1] | Pigs treated per cause: Lean [1] | Pigs treated per cause: Nervous symptoms [1] | Pigs treated per cause: Watery diarrhoea [1] | Number of pigs treated ([1]; P (Chi2) <0.05) | Number of treatments ([1]; curative treatments, P (Chi2) <0.05) | Withdrawn from test ([1]; number of pigs) | Number of deaths ([1]; piglets 42 days old at start) | egg-laying rate ([2]; 2 weeks including the thermal stress phase and the following week, control 85.2%) | daily feed intake per hen ([2]; thermal stress phase (35° C. for 5 days), OTC 400 ppm in feed, SCU 6 mg baicalin/kg of feed, control 50.9 g) |
| --- | --- | --- | --- | --- | --- | --- | --- | --- | --- | --- | --- | --- | --- | --- | --- | --- | --- | --- | --- | --- |
| CC[C@H]1OC(=O)C[C@@H](O)[C@H](C)[C@@H](O[C@@H]2O[C@H](C)[C@@H](O[C@H]3C[C@@](C)(O)[C@@H](O)[C@H](C)O3)[C@H](N(C)C)[C@H]2O)[C@@H](CC=O)C[C@@H](C)C(=O)/C=C/C(C)=C/[C@@H]1CO[C@@H]1O[C@H](C)[C@@H](O)[C@@H](OC)[C@H]1OC [Tylosine, tylosine] | 48% | 52% | 56.0% | 4.0% | 7 | 0 | 2 | 1 | 4 | 7 | 0 | 2 | 1 | 4 | 13 | 14 | 1 | 0 | – | – |
| CN(C)[C@@H]1C(O)=C(C(N)=O)C(=O)[C@@]2(O)C(O)=C3C(=O)c4c(O)cccc4[C@@](C)(O)[C@H]3[C@H](O)[C@@H]12 [OTC, oxytetracycline] | – | – | – | – | – | – | – | – | – | – | – | – | – | – | – | – | – | – | 88.5% | 53.5 g |
